Publication PMC7998589, “A Radiobrominated Tyrosine Kinase Inhibitor for EGFR with L858R/T790M Mutations in Lung Carcinoma” (Pharmaceuticals, 2021)

Tests used:
H1975 (EGFR L858R/T790M) = system: H1975 (EGFR L858R/T790M); set-up: method as in PMID 32599930; settings: WST-8, ref [9]; cited from earlier work
H3255 (EGFR L858R) = system: H3255 (EGFR L858R); set-up: method as in PMID 32599930; settings: WST-8, ref [9]; cited from earlier work
H441 (wild-type EGFR) = system: H441 (wild-type EGFR); set-up: method as in PMID 32599930; settings: WST-8, ref [9]; cited from earlier work
EGFR L858R/T790M = system: EGFR L858R/T790M; set-up: method as in PMID 32599930; settings: ref [9]; cited from earlier work
[1] = Determination of partition coefficient (n-octanol / 0.1 M phosphate buffer pH 7.4); assay type: physicochemical
Protocol: To determine the lipophilicity, the partition coefficient of [^77Br]9 was measured as described previously.

[2] = Stability assessment in PBS and murine plasma; assay type: in vitro ADME, mouse; settings: 1 h, 37 °C
Protocol: The stability profile of [^77Br]9 in phosphate-buffered saline (PBS) and murine plasma is presented in Supporting Information (Figure S2). [^77Br]9 was >80% intact in PBS and murine plasma after incubation for 1 h at 37 °C. Its purity decreased to 57% after 24 h of incubation.
To confirm the stability, we measured the purity of radiotracer after incubation in PBS and mouse plasma, respectively, as described previously.

[3] = system: H1975 (L858R/T790M double mutations EGFR); assay: Cellular uptake and blocking study, H1975; assay type: cell-based, human
Protocol: H1975 (1 × 10^5 cells/well), H441 (1 × 10^5 cells/well), and H3255 (2 × 10^5 cells/well) NSCLC cells were cultured in 6 well plates. Cells were incubated in medium with 10% FBS and 100 IU/mL penicillin–streptomycin at 37 °C in a humidified atmosphere with 5% CO2 for 24 h. […] The cells were dissolved by a 1.0 M NaOH aqueous solution (0.5 mL × 2). The cell lysate was transferred into a test tube. The radioactivity of ^77Br was measured by an auto well gamma counter at a 100–600 keV energy range. […] The BCA protein assay kit protocol was used to determine the protein concentration.

[4] = Biodistribution of double tracers in normal mice; assay type: in vivo; settings: ddY mice
Protocol: (§1) One month later, ^125I activity was determined.

H1975 and H441 tumors = assay: Biodistribution of double tracers in tumor-bearing mice; assay type: in vivo, BALB/c nu/nu mice
Protocol: Six weeks old male ddY mice and four weeks old female BALB/c nu/nu mice were purchased from Japan SLC Inc. (Hamamatsu, Japan). Tumor-bearing mice were prepared by subcutaneous injection of cells suspended in 100 μL medium to the female BALB/c nu/nu mice. H1975 cells (5 × 10^6 cells) were implanted in the right shoulder, and H441 cells (3 × 10^6 cells) were implanted in the left shoulder. The tumor reached palpable size after post-inoculation 12 and 9 days for H1975 and H441, respectively.
as §1

C=CC(=O)Nc1cccc(Nc2nc(Nc3ccc(N4CCN(C(C)=O)CC4)cc3OC)ncc2C(F)(F)F)c1 [CO-1686, rociletinib]
IC50 (H1975 (EGFR L858R/T790M)): 140 ± 50 nM
IC50 (H3255 (EGFR L858R)): 150 ± 20 nM
IC50 (H441 (wild-type EGFR)): 260 ± 40 nM
selectivity toward EGFR L858R/T790M compared with wild-type EGFR (EGFR L858R/T790M): high selectivity

C=CC(=O)Nc1cc(I)cc(Nc2nc(Nc3ccc(N4CCN(C(C)=O)CC4)cc3OC)ncc2C(F)(F)F)c1 [ICO1686]
IC50 (H1975 (EGFR L858R/T790M)): 200 ± 50 nM
IC50 (H3255 (EGFR L858R)): 500 ± 210 nM
IC50 (H441 (wild-type EGFR)): 1840 ± 440 nM
selectivity toward EGFR L858R/T790M compared with wild-type EGFR (EGFR L858R/T790M): high selectivity

C=CC(=O)Nc1cc([77Br])cc(Nc2nc(Nc3ccc(N4CCN(C(C)=O)CC4)cc3OC)ncc2C(F)(F)F)c1 [[^77Br]9]
logP [1]: 1.72 ± 0.21
intact in PBS ([2]; PBS): > 80%
intact in murine plasma ([2]; murine plasma): > 80%
accumulation in H1975 versus H3255 and H441 ([3]; 4 h of incubation): significantly higher
reduction of uptake upon pretreatment with CO-1686 ([3]; H1975): ~60%
accumulation of radioactivity with pretreatment with excess CO-1686 ([3]; H1975, 4 h, CO-1686 100 µM blocking): 56.9 % dose/mg protein
accumulation of radioactivity (cell uptake) ([3]; H1975, 4 h incubation): 136.3 % dose/mg protein
effect of gefitinib on uptake ([3]; H1975, gefitinib 100 µM blocking): not significantly reduced
Biodistribution, Blood ([4]; 10 min after i.v. injection): 3.57 % ID/g
Biodistribution, Bone ([4]; 10 min after i.v. injection): 2.76 % ID/g
Biodistribution, Brain ([4]; 10 min after i.v. injection): 0.45 % ID/g
Biodistribution, Heart ([4]; 10 min after i.v. injection): 4.57 % ID/g
Biodistribution, Kidney ([4]; 10 min after i.v. injection): 11.68 % ID/g
Biodistribution, Large intestine ([4]; 10 min after i.v. injection): 2.83 % ID/g
Biodistribution, Liver ([4]; 10 min after i.v. injection): 11.04 % ID/g
Biodistribution, Lung ([4]; 10 min after i.v. injection): 8.72 % ID/g
Biodistribution, Muscle ([4]; 10 min after i.v. injection): 3.18 % ID/g
Biodistribution, Pancreas ([4]; 10 min after i.v. injection): 3.78 % ID/g
Biodistribution, Small intestine ([4]; 10 min after i.v. injection): 25.38 % ID/g
Biodistribution, Spleen ([4]; 10 min after i.v. injection): 5.11 % ID/g
Biodistribution, Stomach ([4]; 10 min after i.v. injection): 6.17 % ID/organ
Biodistribution, Blood ([4]; 1 h after i.v. injection): 3.24 % ID/g
Biodistribution, Bone ([4]; 1 h after i.v. injection): 1.66 % ID/g
Biodistribution, Brain ([4]; 1 h after i.v. injection): 0.95 % ID/g
Biodistribution, Heart ([4]; 1 h after i.v. injection): 2.93 % ID/g
Biodistribution, Kidney ([4]; 1 h after i.v. injection): 4.21 % ID/g
Biodistribution, Large intestine ([4]; 1 h after i.v. injection): 3.18 % ID/g
Biodistribution, Liver ([4]; 1 h after i.v. injection): 3.83 % ID/g
Biodistribution, Lung ([4]; 1 h after i.v. injection): 4.97 % ID/g
Biodistribution, Muscle ([4]; 1 h after i.v. injection): 2.02 % ID/g
Biodistribution, Pancreas ([4]; 1 h after i.v. injection): 3.58 % ID/g
Biodistribution, Small intestine ([4]; 1 h after i.v. injection): 26.49 % ID/g
Biodistribution, Spleen ([4]; 1 h after i.v. injection): 4.83 % ID/g
Biodistribution, Stomach ([4]; 1 h after i.v. injection): 7.00 % ID/organ
Biodistribution, Blood ([4]; 4 h after i.v. injection): 3.19 % ID/g
Biodistribution, Bone ([4]; 4 h after i.v. injection): 1.54 % ID/g
Biodistribution, Brain ([4]; 4 h after i.v. injection): 0.74 % ID/g
Biodistribution, Heart ([4]; 4 h after i.v. injection): 1.87 % ID/g
Biodistribution, Kidney ([4]; 4 h after i.v. injection): 2.81 % ID/g
Biodistribution, Large intestine ([4]; 4 h after i.v. injection): 47.73 % ID/g
Biodistribution, Liver ([4]; 4 h after i.v. injection): 3.72 % ID/g
Biodistribution, Lung ([4]; 4 h after i.v. injection): 5.08 % ID/g
Biodistribution, Muscle ([4]; 4 h after i.v. injection): 1.13 % ID/g
Biodistribution, Pancreas ([4]; 4 h after i.v. injection): 3.04 % ID/g
Biodistribution, Small intestine ([4]; 4 h after i.v. injection): 5.23 % ID/g
Biodistribution, Spleen ([4]; 4 h after i.v. injection): 2.92 % ID/g
Biodistribution, Stomach ([4]; 4 h after i.v. injection): 6.68 % ID/organ
Biodistribution, Blood ([4]; 24 h after i.v. injection): 1.99 % ID/g
Biodistribution, Bone ([4]; 24 h after i.v. injection): 0.89 % ID/g
Biodistribution, Brain ([4]; 24 h after i.v. injection): 0.42 % ID/g
Biodistribution, Heart ([4]; 24 h after i.v. injection): 0.80 % ID/g
Biodistribution, Kidney ([4]; 24 h after i.v. injection): 1.33 % ID/g
Biodistribution, Large intestine ([4]; 24 h after i.v. injection): 0.98 % ID/g
Biodistribution, Liver ([4]; 24 h after i.v. injection): 1.04 % ID/g
Biodistribution, Lung ([4]; 24 h after i.v. injection): 1.62 % ID/g
Biodistribution, Muscle ([4]; 24 h after i.v. injection): 0.47 % ID/g
Biodistribution, Pancreas ([4]; 24 h after i.v. injection): 1.13 % ID/g
Biodistribution, Small intestine ([4]; 24 h after i.v. injection): 1.00 % ID/g
Biodistribution, Spleen ([4]; 24 h after i.v. injection): 1.14 % ID/g
Biodistribution, Stomach ([4]; 24 h after i.v. injection): 2.21 % ID/organ
eliminated in feces ([4]; 24 h postinjection): 35%
Biodistribution, Blood (H1975 and H441 tumors; 1 h after i.v. injection): 5.64 % ID/g
Biodistribution, Bone (H1975 and H441 tumors; 1 h after i.v. injection): 1.93 % ID/g
Biodistribution, Brain (H1975 and H441 tumors; 1 h after i.v. injection): 1.49 % ID/g
Biodistribution, H441 tumor (H1975 and H441 tumors; 1 h after i.v. injection): 3.71 % ID/g
Biodistribution, H1975 tumor (H1975 and H441 tumors; 1 h after i.v. injection): 4.51 % ID/g
Biodistribution, Heart (H1975 and H441 tumors; 1 h after i.v. injection): 5.36 % ID/g
Biodistribution, Kidney (H1975 and H441 tumors; 1 h after i.v. injection): 7.75 % ID/g
Biodistribution, Large intestine (H1975 and H441 tumors; 1 h after i.v. injection): 24.33 % ID/g
Biodistribution, Liver (H1975 and H441 tumors; 1 h after i.v. injection): 15.89 % ID/g
Biodistribution, Lung (H1975 and H441 tumors; 1 h after i.v. injection): 11.42 % ID/g
Biodistribution, Muscle (H1975 and H441 tumors; 1 h after i.v. injection): 3.42 % ID/g
Biodistribution, Pancreas (H1975 and H441 tumors; 1 h after i.v. injection): 12.95 % ID/g
Biodistribution, Small intestine (H1975 and H441 tumors; 1 h after i.v. injection): 64.52 % ID/g
Biodistribution, Spleen (H1975 and H441 tumors; 1 h after i.v. injection): 9.19 % ID/g
Biodistribution, Stomach (H1975 and H441 tumors; 1 h after i.v. injection): 1.31 % ID/organ
Biodistribution, Blood (H1975 and H441 tumors; 6 h after i.v. injection): 5.35 % ID/g
Biodistribution, Bone (H1975 and H441 tumors; 6 h after i.v. injection): 1.95 % ID/g
Biodistribution, Brain (H1975 and H441 tumors; 6 h after i.v. injection): 1.39 % ID/g
Biodistribution, H441 tumor (H1975 and H441 tumors; 6 h after i.v. injection): 3.30 % ID/g
Biodistribution, H1975 tumor (H1975 and H441 tumors; 6 h after i.v. injection): 3.48 % ID/g
Biodistribution, Heart (H1975 and H441 tumors; 6 h after i.v. injection): 2.99 % ID/g
Biodistribution, Kidney (H1975 and H441 tumors; 6 h after i.v. injection): 4.91 % ID/g
Biodistribution, Large intestine (H1975 and H441 tumors; 6 h after i.v. injection): 59.40 % ID/g
Biodistribution, Liver (H1975 and H441 tumors; 6 h after i.v. injection): 6.76 % ID/g
Biodistribution, Lung (H1975 and H441 tumors; 6 h after i.v. injection): 6.29 % ID/g
Biodistribution, Muscle (H1975 and H441 tumors; 6 h after i.v. injection): 1.79 % ID/g
Biodistribution, Pancreas (H1975 and H441 tumors; 6 h after i.v. injection): 4.28 % ID/g
Biodistribution, Small intestine (H1975 and H441 tumors; 6 h after i.v. injection): 12.46 % ID/g
Biodistribution, Spleen (H1975 and H441 tumors; 6 h after i.v. injection): 2.04 % ID/g
Biodistribution, Stomach (H1975 and H441 tumors; 6 h after i.v. injection): 1.27 % ID/organ
